Measured values published in patent US12077503B2, “Substituted cyclic amides and their use as herbicides” (FMC CORPORATION, priority 2015, dated 2024).

How the values were obtained:
Format in all cases: in vivo
[1] = tested on: pigweed (Amaranthus retroflexus); experiment: Test A postemergence; settings: Amaranthus retroflexus, post-emergence, 240 h
Procedure, shortened: (§1)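 Seeded soil received test chemicals as a preemergence directed spray, and seedlings at one to two leaves, 2–10 cm tall, received them postemergence, in a non-phytotoxic, surfactant-containing solvent mixture. Pots were held in a greenhouse for approximately 10 d, then rated for injury from 0, no effect, to 100, complete control.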

[2] = tested on: giant foxtail (Setaria faberii); experiment: Test A postemergence; settings: Setaria faberi, post-emergence, 240 h
Procedure, shortened: as §1

[3] = tested on: barnyardgrass (Echinochloa crus-galli); experiment: Test A postemergence; settings: Echinochloa crus-galli, post-emergence, 240 h
Procedure, shortened: as §1

[4] = tested on: blackgrass (Alopecurus myosuroides); experiment: Test A postemergence; settings: Alopecurus myosuroides, post-emergence, 240 h
Procedure, shortened: as §1

[5] = tested on: ragweed (common ragweed, Ambrosia elatior); experiment: Test A postemergence; settings: Ambrosia artemisiifolia, post-emergence, 240 h
Procedure, shortened: as §1

corn (Zea mays) = experiment: Test A postemergence; settings: Zea mays, post-emergence, 240 h
Procedure, shortened: as §1

[6] = tested on: ryegrass, Italian (Italian ryegrass, Lolium multiflorum); experiment: Test A postemergence; settings: Lolium multiflorum, post-emergence, 240 h
Procedure, shortened: as §1

[7] = tested on: Galium (catchweed bedstraw, Galium aparine); experiment: Test A postemergence; settings: Galium, post-emergence, 240 h
Procedure, shortened: as §1

Kochia (Kochia scoparia) [8] = experiment: Test A postemergence; settings: Bassia scoparia, post-emergence, 240 h
Procedure, shortened: as §1

[9] = tested on: wheat (Triticum aestivum); experiment: Test A postemergence; settings: Triticum aestivum, post-emergence, 240 h
Procedure, shortened: as §1

[10] = tested on: barnyardgrass (Echinochloa crus-galli); experiment: Test B flooded paddy test; settings: Echinochloa crus-galli, 250 g ai/ha, Flood; 0 to 100 scale where 0 is no effect and 100 is complete control; read-out: Barnyardgrass plant response rating
Procedure, shortened: (§2)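 Greenhouse paddy pots with 2-leaf stage plants received compound by direct addition to floodwater 3 cm deep, kept at that level. Scored visually at 13–15 d versus controls (0 no effect; 100 complete control).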

[11] = tested on: ducksalad (Heteranthera limosa); experiment: Test B flooded paddy test; settings: Heteranthera limosa, 250 g ai/ha, Flood; 0 to 100 scale where 0 is no effect and 100 is complete control; read-out: Ducksalad plant response rating
Procedure, shortened: as §2

rice (Oryra sativa) = experiment: Test B flooded paddy test; settings: Oryza sativa, 250 g ai/ha, Flood; 0 to 100 scale where 0 is no effect and 100 is complete control; read-out: Rice plant response rating
Procedure, shortened: as §2

[12] = tested on: sedge, umbrella (small-flower umbrella sedge, Cyperus difformis); experiment: Test B flooded paddy test; settings: Cyperus difformis, 250 g ai/ha, Flood; 0 to 100 scale where 0 is no effect and 100 is complete control; read-out: Sedge, Umbrella plant response rating
Procedure, shortened: as §2

[13] = tested on: pigweed (Amaranthus retroflexus); experiment: Test A preemergence; settings: Amaranthus retroflexus, pre-emergence, 240 h, 0 to 100 scale where 0 is no effect and 100 is complete control, read-out: Pigweed plant response rating
[14] = tested on: giant foxtail (Setaria faberii); experiment: Test A preemergence; settings: Setaria faberi, pre-emergence, 240 h, 0 to 100 scale where 0 is no effect and 100 is complete control, read-out: Foxtail, Giant plant response rating
Procedure, shortened: as §1

[15] = tested on: barnyardgrass (Echinochloa crus-galli); experiment: Test A preemergence; settings: Echinochloa crus-galli, pre-emergence, 240 h, 0 to 100 scale where 0 is no effect and 100 is complete control, read-out: Barnyardgrass plant response rating
Procedure, shortened: as §1

[16] = tested on: ragweed (common ragweed, Ambrosia elatior); experiment: Test A preemergence; settings: Ambrosia artemisiifolia, pre-emergence, 240 h, 0 to 100 scale where 0 is no effect and 100 is complete control, read-out: Ragweed plant response rating
Procedure, shortened: as §1

[17] = tested on: ryegrass, Italian (Italian ryegrass, Lolium multiflorum); experiment: Test A preemergence; settings: Lolium multiflorum, pre-emergence, 240 h, 0 to 100 scale where 0 is no effect and 100 is complete control, read-out: Ryegrass, Italian plant response rating
Procedure, shortened: as §1

Kochia (Kochia scoparia) [18] = experiment: Test A preemergence; settings: Bassia scoparia, pre-emergence, 240 h, 0 to 100 scale where 0 is no effect and 100 is complete control, read-out: Kochia plant response rating
Procedure, shortened: as §1

[19] = 125 g ai/ha, preemergence, approx. 10 d

CN1C[C@H](c2csc3c2CCCC3)[C@@H](C(=O)Nc2ccccc2S(C)(=O)=O)C1=O [Compound 1080] gave a pest or weed control at 125 g/ha ([1]; 125 g ai/ha, postemergence, visual injury on 0 to 100 scale (0 no effect, 100 complete control), approx. 10 d, read-out: Pigweed plant response rating) of 0%, a pest or weed control at 31 g/ha ([1]; Postemergence, 31 g ai/ha, visual injury after approx. 10 d, 0 to 100 scale, 0 no effect, 100 complete control, read-out: Plant response rating, Pigweed) of 0% and a pest or weed control at 125 g/ha ([2]; 125 g ai/ha, postemergence, visual injury on 0 to 100 scale (0 no effect, 100 complete control), approx. 10 d, read-out: Foxtail, Giant plant response rating) of 0%. The pest or weed control at 31 g/ha ([2]; Postemergence, 31 g ai/ha, visual injury after approx. 10 d, 0 to 100 scale, 0 no effect, 100 complete control, read-out: Plant response rating, Foxtail, Giant) was 0%, the pest or weed control at 125 g/ha ([3]; 125 g ai/ha, postemergence, visual injury on 0 to 100 scale (0 no effect, 100 complete control), approx. 10 d, read-out: Barnyardgrass plant response rating) was 50% and the pest or weed control at 31 g/ha ([3]; Postemergence, 31 g ai/ha, visual injury after approx. 10 d, 0 to 100 scale, 0 no effect, 100 complete control, read-out: Plant response rating, Barnyardgrass) was 0%. For the same compound, the pest or weed control at 125 g/ha ([4]; 125 g ai/ha, postemergence, visual injury on 0 to 100 scale (0 no effect, 100 complete control), approx. 10 d, read-out: Blackgrass plant response rating) was 0%, the pest or weed control at 31 g/ha ([4]; Postemergence, 31 g ai/ha, visual injury after approx. 10 d, 0 to 100 scale, 0 no effect, 100 complete control, read-out: Plant response rating, Blackgrass) was 0% and the pest or weed control at 125 g/ha ([5]; 125 g ai/ha, postemergence, visual injury on 0 to 100 scale (0 no effect, 100 complete control), approx. 10 d, read-out: Ragweed plant response rating) was 0%. It also gave a pest or weed control at 31 g/ha ([5]; Postemergence, 31 g ai/ha, visual injury after approx. 10 d, 0 to 100 scale, 0 no effect, 100 complete control, read-out: Plant response rating, Ragweed) of 0%, a plant injury at 125 g/ha (corn (Zea mays); 125 g ai/ha, postemergence, visual injury on 0 to 100 scale (0 no effect, 100 complete control), approx. 10 d, read-out: Corn plant response rating) of 0% and a Corn plant response rating (crop injury, 0 = no effect, 100 = complete kill) at 31 g/ha (corn (Zea mays); Postemergence, 31 g ai/ha, visual injury after approx. 10 d, 0 to 100 scale, 0 no effect, 100 complete control) of 0%. The pest or weed control at 125 g/ha ([6]; 125 g ai/ha, postemergence, visual injury on 0 to 100 scale (0 no effect, 100 complete control), approx. 10 d, read-out: Ryegrass, Italian plant response rating) was 0%, the pest or weed control at 31 g/ha ([6]; Postemergence, 31 g ai/ha, visual injury after approx. 10 d, 0 to 100 scale, 0 no effect, 100 complete control, read-out: Plant response rating, Ryegrass, Italian) was 0% and the pest or weed control at 125 g/ha ([7]; 125 g ai/ha, postemergence, visual injury on 0 to 100 scale (0 no effect, 100 complete control), approx. 10 d, read-out: Galium plant response rating) was 0%. The pest or weed control at 31 g/ha ([7]; Postemergence, 31 g ai/ha, visual injury after approx. 10 d, 0 to 100 scale, 0 no effect, 100 complete control, read-out: Plant response rating, Galium) was 0%, the pest or weed control at 125 g/ha (Kochia (Kochia scoparia) [8]; 125 g ai/ha, postemergence, visual injury on 0 to 100 scale (0 no effect, 100 complete control), approx. 10 d, read-out: Kochia plant response rating) was 0% and the pest or weed control at 31 g/ha (Kochia (Kochia scoparia) [8]; Postemergence, 31 g ai/ha, visual injury after approx. 10 d, 0 to 100 scale, 0 no effect, 100 complete control, read-out: Plant response rating, Kochia) was 0%. For the same compound, the plant injury at 125 g/ha ([9]; 125 g ai/ha, postemergence, visual injury on 0 to 100 scale (0 no effect, 100 complete control), approx. 10 d, read-out: Wheat plant response rating) was 0%, the plant injury at 31 g/ha ([9]; Postemergence, 31 g ai/ha, visual injury after approx. 10 d, 0 to 100 scale, 0 no effect, 100 complete control, read-out: Plant response rating, Wheat) was 0% and the pest or weed control at 250 g/ha [10] was 50%. For the same compound, the pest or weed control at 250 g/ha [11] was 40%, the pest or weed control at 250 g/ha (rice (Oryra sativa)) was 15% and the pest or weed control at 250 g/ha [12] was 0%. The pest or weed control at 31 g/ha ([13]; 31 g ai/ha, Preemergence) was 0%, the pest or weed control at 125 g/ha [13, 19] was 0% and the pest or weed control at 31 g/ha ([14]; 31 g ai/ha, Preemergence) was 0%. It also gave a pest or weed control at 125 g/ha [14, 19] of 0%, a pest or weed control at 31 g/ha ([15]; 31 g ai/ha, Preemergence) of 0% and a pest or weed control at 125 g/ha [15, 19] of 0%. It also gave a pest or weed control at 31 g/ha ([16]; 31 g ai/ha, Preemergence) of 0%, a pest or weed control at 125 g/ha [16, 19] of 0% and a pest or weed control at 31 g/ha ([17]; 31 g ai/ha, Preemergence) of 0%. The pest or weed control at 125 g/ha [17, 19] was 0%, the pest or weed control at 31 g/ha (Kochia (Kochia scoparia) [18]; 31 g ai/ha, Preemergence) was 0% and the pest or weed control at 125 g/ha (Kochia (Kochia scoparia) [18]; [19]) was 10%.
